The record followed here is US8211945B2, “Carba-sugar amine derivative and glycolipid metabolic disorder treating agent containing the same as active ingredient” (Seikagaku Corporation, priority 2001, dated 2012).

Substitutions are numbered along the chain they refer to.

Holding throughout (experiment): Mutant β-galactosidase activity in model cells, 4 days culture
Format in all cases: cell-based

Assay [1] addresses T1, human mutant β-galactosidase G123R (Homo sapiens, UniProt P16278, G123R).
T1 construct: expressed in transfected cells; host or cells: SV40-immortalized skin fibroblasts of a β-galactosidase-deficient knockout mouse
T1 sequence (P16278 29-677 G123R): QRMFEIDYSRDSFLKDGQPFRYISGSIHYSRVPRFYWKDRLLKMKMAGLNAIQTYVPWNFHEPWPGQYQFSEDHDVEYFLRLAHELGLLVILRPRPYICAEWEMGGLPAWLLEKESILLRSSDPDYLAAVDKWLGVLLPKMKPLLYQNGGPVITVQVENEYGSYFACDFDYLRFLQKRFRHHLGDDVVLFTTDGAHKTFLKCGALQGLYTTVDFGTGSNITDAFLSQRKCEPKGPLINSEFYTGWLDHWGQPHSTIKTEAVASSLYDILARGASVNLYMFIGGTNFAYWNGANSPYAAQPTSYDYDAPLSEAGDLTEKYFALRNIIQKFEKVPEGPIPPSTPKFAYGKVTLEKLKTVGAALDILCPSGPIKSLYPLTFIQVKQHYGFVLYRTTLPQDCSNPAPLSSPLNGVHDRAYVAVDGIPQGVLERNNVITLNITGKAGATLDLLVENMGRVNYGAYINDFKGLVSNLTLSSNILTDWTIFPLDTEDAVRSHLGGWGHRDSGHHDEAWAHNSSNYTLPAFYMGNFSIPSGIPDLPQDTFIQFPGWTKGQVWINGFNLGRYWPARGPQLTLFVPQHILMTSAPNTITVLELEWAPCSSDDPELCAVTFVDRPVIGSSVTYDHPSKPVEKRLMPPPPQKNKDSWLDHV
The text has this: (§1) Cultured skin fibroblasts of a β-galactosidase-deficient knockout mouse was immortalized by introducing an SV40 viral gene, and enzyme genes integrated into pSV2neo and an expression vector were also introduced simultaneously, thereby establishing a model cell (Brain Dev., 23(5), 284-287, 2001). The genes used are human normal (GP8) and mutant β-galactosidase gene Y316C, G123R (infantile GM1-gangliosidosis), R201C (juvenile GM1-gangliosidosis), 151T, T82M, R201H, R263S, R457Q (adult GM1-gangliosidosis), W273L, Y83H, R482H and R482C (Morquio-B disease) (Hum. Genet., 93(2), 109-114, 1994).
(§2) As a control substance, 0.5 mM N-(n-butyl)-deoxygalactonojirimycin (NB-DGJ: The Journal of Biological Chemistry, 269, 27108-27114 (1994)) was used, and the substance 18 of the present invention was used in an amount of 0.2 μM.
(§3) Specifically, after culturing the model cell for 4 days using a cell culture medium (10% FCS DMEM) containing the substance 18 of the present invention, the resulting cells were recovered and diluted such that the amount of protein in the suspension became a predetermined level, and then enzyme activity in the diluted suspension was measured. Using 4-methylumbelliferyl-β-D-galactopyranoside as the fluorescent substrate, the enzyme activity during 30 minutes was measured at 37° C.

The target of assay [2] is T2, human mutant β-galactosidase R201C (Homo sapiens, UniProt P16278, R201C).
T2 construct: from tissue
T2 sequence (P16278 29-677 R201C): T1 sequence (P16278 29-677 G123R) with R95G, R173C
Excerpt: as §1, §2, §3

The target of assay [3] is T3, human mutant β-galactosidase P263S (Homo sapiens, UniProt P16278, P263S).
T3 construct: expressed in transfected cells; host or cells: SV40-immortalized skin fibroblasts of a β-galactosidase-deficient knockout mouse
T3 sequence (P16278 29-677 P263S): T1 sequence (P16278 29-677 G123R) with R95G, P235S
Excerpt: as §1, §2, §3

With `CCCCN1C[C@H](O)[C@@H](O)[C@@H](O)[C@H]1CO` [Control, N-(n-butyl)-deoxygalactonojirimycin, reference compound], the “enzyme activity, Control” value worked out at 0.13 in assay [1] (transferred gene G123R, control substance 0.5 mM NB-DGJ); 20.16 in assay [2] (transferred gene R201C, control substance 0.5 mM NB-DGJ); 0.02 in assay [3] (transferred gene P263S, control substance 0.5 mM NB-DGJ).

On to `CCCCCCCCN[C@@H]1C=C(CO)[C@H](O)C(O)[C@@H]1O` (stereo partly drawn) [Substance 18, N-octyl-5a-carba-α-L-arabino-hexo-5(5a)-enopyranosylamine], for which the “Relative ratio (×100%)” value is on record as 1.55 ×100% in assay [1] (G123R, substance 18 vs control); 2.43 ×100% in assay [2] (R201C, substance 18 vs control); 6.58 ×100% in assay [3] (P263S, substance 18 vs control). Further, the enzyme activity in assay [1] (transferred gene G123R, 0.2 μM, 4 days) was 0.20; in assay [2] (transferred gene R201C, 0.2 μM, 4 days) it was 48.88; in assay [3] (transferred gene P263S, 0.2 μM, 4 days) it was 0.12. Moreover, the “enzyme activity increased in comparison with the control” value in assay [2] (R201C, 0.2 μM) is given as no less than 150%.
